This experiment has as its system CEM cells HIV-1 protection, formazan growth assay. Description: NCI AIDS Antiviral Assay. As to conditions: for IC50: measured here: growth of uninfected CEM cells. The gist of the method:
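Soluble formazan readout of cell growth; CEM cells ± HIV-1; 5 drug concs. ≥50% protection → retest; ≥50% again = moderately active; reproducible 100% = confirmed active.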

Among the data in PubChem BioAssay AID179 (DTP/NCI, 2004) are EC50, IC50 and outcome values, retold here.

Broadly, the EC50 is the concentration giving half of the maximal effect. A word on the IC50: it is the concentration that gives 50% inhibition. Lower therefore signals greater potency in that assay.

Activity calls are given as the source filed them.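 How the source made its calls: active means compounds giving half or more protection of infected cells from virus-caused growth loss, again on retest; inactive means the rest.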

Take `O=C(CN1CCN(C(=O)OCc2ccccc2)CCN(CC(=O)N2CCCCC2)CCN(C(=O)OCc2ccccc2)CC1)N1CCCCC1`: the EC50 is over 200 µM and the IC50 worked out at 10.2 µM.
Regarding `O=[N+]([O-])c1ccc(NC(=S)N/N=C(\c2ccccc2)c2ccccn2)cc1`, the EC50 was over 2 µM and the IC50 is over 2 µM.
As to `CCOC(=O)c1[nH]cnc1/N=N/N(C)N`, the EC50 is over 200 µM and the IC50 came to 21.4 µM.
The corresponding values for `O=C(Cc1ccccc1)N/N=C(\C1=Nc2ccc([N+](=O)[O-])cc2NC1O)C(O)c1ccc([N+](=O)[O-])cc1` (stereo unspecified) are over 51.3 µM and 47.9 µM.
The corresponding values for `Cc1ccc(Nc2c3c(c(C#N)c4nc5ccccc5n24)CCCC3)cc1` are over 200 µM and 10.7 µM.
In the case of `COC(=O)C12C(=O)O[C@H](C)C1(O)C(C)C(=O)N2C` (stereo partly specified), the outcome was inactive.
As to `CC(NC(=O)C(OC(=O)C(C)NC(=O)OC(C)(C)C)C(C)C)C(=O)OC(C(=O)O)C(C)C` (stereo unspecified), the EC50 is over 200 µM and the IC50 is over 200 µM.
Turning to `CC1=N/C(=C\c2ccco2)C(=O)O1`, the EC50 is over 537 µM and the IC50 was over 537 µM.
For the compound `CC(C)(C)OC(=O)/C=C/C(=O)O/C=C/[N+](=O)[O-]`, the EC50 was over 200 µM and the IC50 is over 200 µM.
Consider `CCOP(=O)(OCC)/C(C#N)=C/c1cccn1CC(C)C`, for which the EC50 is 60.3 µM and the IC50 came to 123 µM.
The corresponding values for `O=C1/C(=C/c2cccc([N+](=O)[O-])c2)COc2ccccc21` are over 12.9 µM and 1.51 µM.
The corresponding values for `Cc1n[nH]c2ccc(Br)cc2c1=O` are over 50.1 µM and over 50.1 µM.
The corresponding values for `[CH3][Sn]1([CH3])[O]C(=O)CCN=Cc2c(ccc3ccccc23)[O][Sn]([CH3])([CH3])[O]C(=O)CCN=Cc2c(ccc3ccccc23)[O]1` are over 200 µM and 20 µM.
As for `CSc1nc(N)cc(C(F)(F)F)n1`, the EC50 is over 200 µM and the IC50 was over 200 µM.
In the case of `CCCCI(O)OS(=O)(=O)c1ccc(C)cc1`, the outcome was inactive.
On to `CCCCNC(=O)OCC(C)(CCC)COC(N)=O` (stereo unspecified), for which the EC50 is over 200 µM and the IC50 came out at 148 µM.
The corresponding values for `COC(=O)/C=C1\C(CO)OC(n2ccc(=O)[nH]c2=O)C1O` (stereo unspecified) are over 200 µM and over 200 µM.
In the case of `Cc1ccc(S(=O)(=O)N/N=C(\c2nc3ccc([N+](=O)[O-])cc3[nH]c2=O)C(O)c2ccc([N+](=O)[O-])cc2)cc1` (stereo unspecified), the EC50 is over 126 µM and the IC50 turned out to be 112 µM.
The corresponding values for `COc1cc(COC(=O)N2CCCCC2C(=O)O)c([N+](=O)[O-])cc1OC` (stereo unspecified) are over 676 µM and 457 µM.
The corresponding values for `CC(=O)c1ccccc1NC(=O)C(=O)C(C(=O)c1ccccc1-c1ccccc1)C1OC(=O)c2ccccc21` (stereo unspecified) are over 50.1 µM and 26.9 µM.
As for `O=C(O)c1nc2ccc(C(F)(F)F)cc2nc1NCc1ccc(Cl)c(Cl)c1`, the EC50 is over 200 µM and the IC50 was 19.1 µM.
Regarding `O=C1C=CC(=O)c2c1ccc1c3ccccc3n(Cc3cccc([N+](=O)[O-])c3)c21`, the EC50 is over 200 µM and the IC50 was 1.35 µM.
As to `CCOC(=O)C1=NN(c2ccccc2)C(=O)/C1=C\N1C(=O)CC(=O)NC1=S`, the EC50 was over 200 µM and the half-inhibitory concentration (IC50) worked out at 195 µM.
The corresponding values for `C[N+](C)(C)CCC(=O)CC[N+](C)(C)C` are over 8.32 µM and over 8.32 µM.
The corresponding values for `NC(N)=N/N=C/c1oc(-c2ccc(S(=O)(=O)O)o2)c(-c2ccc(S(=O)(=O)O)o2)c1[N+](=O)[O-]` are over 513 µM and over 513 µM.
The corresponding values for `CC/C=C\C/C=C\C/C=C\CCCCCCCC(=O)OCC(COC1OC(CS(=O)(=O)O)C(O)C(O)C1O)OC(=O)CCCCCCCCCCCCCCC` (stereo unspecified) are over 10 µM and 5.62 µM.
Regarding `COc1cc(OC)c2nc3ccccc3c(NCCCN(C)C)c2c1[N+](=O)[O-]`, the EC50 was over 200 µM and the IC50 amounted to 20 µM.
The corresponding values for `CCCCC(Sc1cc(Cl)c(C)cc1S(=O)(=O)Nc1n[nH]c(N)n1)C(=O)OC` (stereo unspecified) are over 200 µM and over 100 µM.
The corresponding values for `Cc1nc2c(sc(=S)n2-c2ccccc2)c2nc3ccccc3n12` are over 2.09 µM and over 2.09 µM.
The corresponding values for `COC(CN1CCOCCOCCOCC1)CN1CCOCCOCCOCC1` are over 2510 µM and over 2510 µM.
In the case of `O=C1NC(=S)SC1N=Nc1ccc(S(=O)(=O)Nc2ncccn2)cc1` (stereo unspecified), the EC50 is over 200 µM and the IC50 was over 200 µM.
For `O=S(=O)(c1ccccc1)n1c2ccc(Br)cc2c2nc3ccccc3nc21`, the EC50 was over 200 µM and the IC50 was over 200 µM.
As to `COC(CN1C=C(Sc2ccccc2)CC1)OC`, the EC50 is over 97.7 µM and the IC50 was 16.6 µM.
`O=[N+]([O-])c1ccc(-n2nnc(C3=NCCN3)c2-c2ccccc2)cc1`: the EC50 was over 30.2 µM and the IC50 is over 30.2 µM.
`COC(=O)C1SC[C@H]2C(=O)N(c3ccccc3)C(=O)N12` (stereo partly specified): the EC50 is over 200 µM and the IC50 was over 200 µM.
Regarding `O=[N+]([O-])c1cccnc1S(=O)(=O)c1ccccc1`, the EC50 is over 490 µM and the IC50 worked out at 1.1 µM.
The corresponding values for `N#Cc1c(NCCc2ccc(F)cc2)c2ccccc2n2c1nc1ccccc12` are 11 µM and over 200 µM.
The corresponding values for `CCCC1=NC(C(F)(F)F)(C(F)(F)F)N=C(N2CCOCC2)O1` are over 200 µM and over 200 µM.
Regarding `O=c1nc(N2CCCC2)nc(N2CCCC2)s1`, the outcome was inactive.
For `O=c1scc(-c2ccc([N+](=O)[O-])cc2)s1`, the EC50 was over 6.03 µM and the IC50 is over 6.03 µM.
Consider `CCCc1cc(=O)oc2c3c(c4c(c12)OC(C)(C)C=C4)O[C@H](C)[C@@H](C)[C@H]3O`, for which the half-maximal effective concentration (EC50) is over 58.9 µM and the IC50 worked out at 17.8 µM.
The corresponding values for `CC(=O)NC1C(O[C@H]2CC[C@@]3(C)C(CC[C@]4(C)C3CC=C3C5CC(C)(C)CC[C@]5(C(=O)O)CCC34C)C2(C)C)OC(CO)C(O)C1O` (stereo partly specified) are over 200 µM and 9.12 µM.
The corresponding values for `COc1ccc(N=[N+]([O-])c2ccc(OC)cc2)cc1` are over 200 µM and over 200 µM.
On to `CCOC(=O)C12C3CCC1C2C(=O)C3` (stereo unspecified), for which the result was inactive.
On to `COc1ccccc1C1SCc2nc3ccccc3n21` (stereo unspecified), for which the EC50 is over 91.2 µM and the IC50 turned out to be 36.3 µM.
The corresponding values for `COc1nc(N(C)C)nc2c1n(C)c[n+]2C` are over 107 µM and 12.6 µM.
The corresponding values for `COC(=O)C12CC(c3ccccc31)C1C(=O)OC(=O)C12` (stereo unspecified) are over 132 µM and over 132 µM.
For `CSc1nc(=S)[nH]c2n[nH]c(C)c12`, the EC50 is over 200 µM and the IC50 was over 200 µM.
In the case of `CCN(CC)CCn1nc(N)c2nc3cc(Cl)ccc3nc21`, the EC50 is over 100 µM and the IC50 came out at 51.3 µM.
For `COc1ccc(N2C(=O)c3c4c(c5c([nH]c6ncccc65)c3C2=O)CCC(C(C)(C)C)C4)cc1` (stereo unspecified), the EC50 is 191 µM and the IC50 was over 200 µM.
